Key:
Assay in all cases: EC50 assay: Ba/F3 stable cell proliferation (CCK-8, 72 h)
Assay type in all cases: cell-based
[1] = molecular target: T1, Ba/F3 stable cells (Homo sapiens, UniProt P00533, T790M/L858R, cells depend on it); settings: Ba/F3-EGFR L858R-T790M cells
T1 construct: EC50 Ba/F3-EGFR L858R-T790M; other: Ba/F3-EGFR L858R-T790M cells, 72 h, CCK-8
Method in brief: (§1)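 Ba/F3 stable cells were seeded at 4,000 cells/90 μL/well in 96-well plates and held 2 h at 37° C. in 5% CO2, then given 10 μL of serially titrated compound (0.1% DMSO final). After 72 h at 37° C., CCK-8 reagent was added for 4 hours and absorbance read at 450 nm to derive EC50.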

[2] = molecular target: T2, Ba/F3 stable cells (Homo sapiens, UniProt P00533, DUP768-770, cells depend on it); settings: Ba/F3-EGFR D770-N771insSVD cells
T2 construct: EC50 Ba/F3-EGFR D770-N771insSVD; other: Ba/F3-EGFR D770-N771insSVD cells, 72 h, CCK-8
T2 sequence (P00533 with tags, fused parts or gaps DUP768-770): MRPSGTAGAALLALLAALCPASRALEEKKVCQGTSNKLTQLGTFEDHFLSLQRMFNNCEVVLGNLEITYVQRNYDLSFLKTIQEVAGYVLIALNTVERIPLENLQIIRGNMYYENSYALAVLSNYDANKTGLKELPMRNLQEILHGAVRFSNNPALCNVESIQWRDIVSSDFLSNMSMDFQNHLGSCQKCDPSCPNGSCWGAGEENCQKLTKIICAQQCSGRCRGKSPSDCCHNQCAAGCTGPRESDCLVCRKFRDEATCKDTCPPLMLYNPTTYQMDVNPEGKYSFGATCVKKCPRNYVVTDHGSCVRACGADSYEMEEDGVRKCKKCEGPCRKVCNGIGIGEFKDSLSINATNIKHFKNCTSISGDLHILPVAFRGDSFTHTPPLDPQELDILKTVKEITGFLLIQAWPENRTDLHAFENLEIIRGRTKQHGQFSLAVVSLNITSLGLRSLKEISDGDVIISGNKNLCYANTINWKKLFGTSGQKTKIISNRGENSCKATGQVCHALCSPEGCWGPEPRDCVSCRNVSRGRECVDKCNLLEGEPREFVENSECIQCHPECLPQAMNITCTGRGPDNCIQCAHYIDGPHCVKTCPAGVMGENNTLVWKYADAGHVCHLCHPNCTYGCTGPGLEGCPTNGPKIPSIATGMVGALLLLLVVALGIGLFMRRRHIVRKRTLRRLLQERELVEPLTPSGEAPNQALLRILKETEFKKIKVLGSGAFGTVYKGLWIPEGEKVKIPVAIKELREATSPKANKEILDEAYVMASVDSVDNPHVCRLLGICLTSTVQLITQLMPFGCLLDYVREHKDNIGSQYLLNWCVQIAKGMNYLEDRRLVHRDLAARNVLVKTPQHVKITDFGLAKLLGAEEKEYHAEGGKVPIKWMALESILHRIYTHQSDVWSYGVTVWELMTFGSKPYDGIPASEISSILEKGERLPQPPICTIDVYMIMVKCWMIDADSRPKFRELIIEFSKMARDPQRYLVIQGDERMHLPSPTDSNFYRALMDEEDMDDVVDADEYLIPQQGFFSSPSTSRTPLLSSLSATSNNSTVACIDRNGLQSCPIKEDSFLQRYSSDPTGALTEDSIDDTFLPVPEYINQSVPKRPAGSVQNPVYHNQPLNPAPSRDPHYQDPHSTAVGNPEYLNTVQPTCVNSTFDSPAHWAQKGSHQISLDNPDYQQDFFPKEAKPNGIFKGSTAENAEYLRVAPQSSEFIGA
Method in brief: as §1

[3] = molecular target: T3, Ba/F3 stable cells (Homo sapiens, UniProt P00533, DUP767-769, cells depend on it); settings: Ba/F3-EGFR V769-D770insASV cells
T3 construct: EC50 Ba/F3-EGFR V769-D770insASV; other: Ba/F3-EGFR V769-D770insASV cells, 72 h, CCK-8
T3 sequence (P00533 with tags, fused parts or gaps DUP767-769): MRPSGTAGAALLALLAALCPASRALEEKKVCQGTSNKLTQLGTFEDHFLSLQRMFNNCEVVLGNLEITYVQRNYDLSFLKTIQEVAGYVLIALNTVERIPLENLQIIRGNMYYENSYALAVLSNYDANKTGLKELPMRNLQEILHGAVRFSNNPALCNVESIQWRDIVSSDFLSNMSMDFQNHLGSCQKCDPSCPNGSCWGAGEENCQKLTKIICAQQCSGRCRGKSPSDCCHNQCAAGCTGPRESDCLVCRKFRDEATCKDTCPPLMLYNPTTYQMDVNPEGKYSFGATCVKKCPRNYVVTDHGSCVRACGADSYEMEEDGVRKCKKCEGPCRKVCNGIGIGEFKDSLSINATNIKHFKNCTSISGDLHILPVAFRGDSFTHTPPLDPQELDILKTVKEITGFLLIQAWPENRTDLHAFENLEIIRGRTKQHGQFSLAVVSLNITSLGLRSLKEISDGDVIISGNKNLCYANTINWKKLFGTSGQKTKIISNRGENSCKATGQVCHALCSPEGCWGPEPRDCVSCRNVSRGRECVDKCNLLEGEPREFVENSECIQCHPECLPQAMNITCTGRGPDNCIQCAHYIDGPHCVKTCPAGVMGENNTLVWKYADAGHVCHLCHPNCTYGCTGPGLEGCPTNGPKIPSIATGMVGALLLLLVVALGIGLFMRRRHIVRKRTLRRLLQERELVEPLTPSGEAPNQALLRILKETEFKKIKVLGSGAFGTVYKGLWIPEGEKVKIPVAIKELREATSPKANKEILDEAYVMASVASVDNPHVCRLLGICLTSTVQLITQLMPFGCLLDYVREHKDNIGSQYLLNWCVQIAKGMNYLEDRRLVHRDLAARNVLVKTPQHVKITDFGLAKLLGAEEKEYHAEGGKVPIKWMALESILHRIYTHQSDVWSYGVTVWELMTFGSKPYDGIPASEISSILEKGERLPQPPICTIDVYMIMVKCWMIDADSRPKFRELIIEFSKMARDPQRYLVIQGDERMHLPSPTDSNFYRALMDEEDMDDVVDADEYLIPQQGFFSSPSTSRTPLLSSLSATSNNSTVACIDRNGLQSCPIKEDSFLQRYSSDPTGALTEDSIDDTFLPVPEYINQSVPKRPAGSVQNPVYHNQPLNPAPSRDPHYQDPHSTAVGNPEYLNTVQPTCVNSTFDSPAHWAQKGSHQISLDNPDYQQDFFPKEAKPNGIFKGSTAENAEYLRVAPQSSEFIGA
Method in brief: as §1

[4] = molecular target: T4, Ba/F3 stable cells (Homo sapiens, UniProt P00533, DUP771-773, cells depend on it); settings: Ba/F3-EGFR H773-V774insNPH cells
T4 construct: EC50 Ba/F3-EGFR H773-V774insNPH; other: Ba/F3-EGFR H773-V774insNPH cells, 72 h, CCK-8
T4 sequence (P00533 with tags, fused parts or gaps DUP771-773): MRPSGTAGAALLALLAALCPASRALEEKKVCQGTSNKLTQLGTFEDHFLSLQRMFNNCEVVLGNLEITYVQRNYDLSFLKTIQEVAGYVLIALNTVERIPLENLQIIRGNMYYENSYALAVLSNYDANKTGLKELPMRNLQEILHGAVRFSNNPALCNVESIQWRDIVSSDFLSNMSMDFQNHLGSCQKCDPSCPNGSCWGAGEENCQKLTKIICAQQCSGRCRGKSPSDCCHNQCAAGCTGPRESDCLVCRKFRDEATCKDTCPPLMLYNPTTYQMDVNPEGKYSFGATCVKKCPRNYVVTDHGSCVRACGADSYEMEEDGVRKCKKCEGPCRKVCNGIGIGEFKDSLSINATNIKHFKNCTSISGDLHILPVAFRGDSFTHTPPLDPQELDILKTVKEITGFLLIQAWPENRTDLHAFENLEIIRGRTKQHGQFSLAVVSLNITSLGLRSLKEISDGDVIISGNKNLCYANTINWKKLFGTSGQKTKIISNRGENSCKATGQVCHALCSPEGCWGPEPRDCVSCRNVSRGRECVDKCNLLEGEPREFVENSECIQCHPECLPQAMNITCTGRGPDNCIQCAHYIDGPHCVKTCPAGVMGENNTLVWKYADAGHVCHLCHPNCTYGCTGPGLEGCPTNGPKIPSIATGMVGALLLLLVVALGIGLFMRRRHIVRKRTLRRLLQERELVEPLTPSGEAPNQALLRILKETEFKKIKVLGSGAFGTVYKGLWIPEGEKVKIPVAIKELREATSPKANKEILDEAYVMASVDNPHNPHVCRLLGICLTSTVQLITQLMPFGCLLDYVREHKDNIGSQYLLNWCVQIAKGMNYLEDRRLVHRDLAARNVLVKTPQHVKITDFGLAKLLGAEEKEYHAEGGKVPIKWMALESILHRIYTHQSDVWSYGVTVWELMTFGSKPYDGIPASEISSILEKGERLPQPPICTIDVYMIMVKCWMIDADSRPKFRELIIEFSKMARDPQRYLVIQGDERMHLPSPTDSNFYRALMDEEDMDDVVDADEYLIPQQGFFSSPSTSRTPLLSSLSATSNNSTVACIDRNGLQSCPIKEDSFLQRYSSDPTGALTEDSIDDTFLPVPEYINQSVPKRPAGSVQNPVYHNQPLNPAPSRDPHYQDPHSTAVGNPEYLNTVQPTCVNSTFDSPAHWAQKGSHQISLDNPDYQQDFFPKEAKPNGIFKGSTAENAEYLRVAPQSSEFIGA
Method in brief: as §1

[5] = molecular target: T5, Ba/F3 stable cells (Homo sapiens, UniProt P04626, DUP772-775, cells depend on it); settings: Ba/F3-HER2 A775-G776insYVMA cells
T5 construct: EC50 Ba/F3-HER2 A775-G776insYVMA; other: Ba/F3-HER2 A775-G776insYVMA cells, 72 h, CCK-8
T5 sequence (P04626 with tags, fused parts or gaps DUP772-775): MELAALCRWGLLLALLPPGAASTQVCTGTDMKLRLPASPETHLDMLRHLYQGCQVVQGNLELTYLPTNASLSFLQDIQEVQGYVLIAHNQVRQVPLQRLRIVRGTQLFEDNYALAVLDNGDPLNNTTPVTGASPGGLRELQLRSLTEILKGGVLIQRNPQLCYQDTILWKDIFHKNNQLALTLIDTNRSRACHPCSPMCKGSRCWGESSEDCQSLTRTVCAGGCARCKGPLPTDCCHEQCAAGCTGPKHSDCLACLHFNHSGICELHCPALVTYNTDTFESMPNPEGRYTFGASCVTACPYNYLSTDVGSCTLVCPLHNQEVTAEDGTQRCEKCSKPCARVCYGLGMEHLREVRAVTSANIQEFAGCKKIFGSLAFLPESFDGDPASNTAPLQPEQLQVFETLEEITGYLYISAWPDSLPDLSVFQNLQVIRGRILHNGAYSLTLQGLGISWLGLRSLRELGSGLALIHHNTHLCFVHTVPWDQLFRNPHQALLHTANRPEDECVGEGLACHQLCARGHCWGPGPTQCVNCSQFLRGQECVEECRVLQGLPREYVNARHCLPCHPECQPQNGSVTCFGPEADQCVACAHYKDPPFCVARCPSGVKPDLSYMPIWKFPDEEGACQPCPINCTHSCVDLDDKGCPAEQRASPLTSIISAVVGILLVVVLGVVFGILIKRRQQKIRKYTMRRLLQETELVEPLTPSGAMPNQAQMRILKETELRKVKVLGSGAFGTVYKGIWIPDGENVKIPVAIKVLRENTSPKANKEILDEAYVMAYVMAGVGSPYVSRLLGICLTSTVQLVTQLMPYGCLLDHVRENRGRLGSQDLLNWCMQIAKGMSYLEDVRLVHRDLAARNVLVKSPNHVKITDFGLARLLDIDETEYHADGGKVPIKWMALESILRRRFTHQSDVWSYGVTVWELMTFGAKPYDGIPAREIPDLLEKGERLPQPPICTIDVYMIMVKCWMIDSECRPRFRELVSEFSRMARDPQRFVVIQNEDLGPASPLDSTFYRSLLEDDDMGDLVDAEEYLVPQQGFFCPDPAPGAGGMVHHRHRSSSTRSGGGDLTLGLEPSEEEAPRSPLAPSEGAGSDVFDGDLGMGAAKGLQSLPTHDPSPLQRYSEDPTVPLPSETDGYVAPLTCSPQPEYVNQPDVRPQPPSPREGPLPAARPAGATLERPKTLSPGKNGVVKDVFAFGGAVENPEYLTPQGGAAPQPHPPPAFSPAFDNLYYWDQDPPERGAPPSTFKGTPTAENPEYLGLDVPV
Method in brief: as §1

[6] = molecular target: T6, Ba/F3 stable cells (Homo sapiens, UniProt P00533, INS763FQEA, cells depend on it); settings: Ba/F3-EGFR A763-Y764insFQEA cells
T6 construct: EC50 Ba/F3-EGFR A763-Y764insFQEA; other: Ba/F3-EGFR A763-Y764insFQEA cells, 72 h, CCK-8
Method in brief: as §1

| EC50 [1] [nM] | EC50 [2] [nM] | EC50 [3] [nM] | EC50 [4] [nM] | EC50 [5] [nM] | EC50 [6] [nM] | SMILES |
| --- | --- | --- | --- | --- | --- | --- |
| 200 to 1000 | 200 to 1000 | ≤ 200 | ≤ 200 | 200 to 1000 | ≤ 200 | C=CC(=O)N[C@H]1C[C@@H](Oc2cc3c(Nc4ccc(Cl)c(Cl)c4F)ncnc3cc2OC2COC2)C1 [Compound 104, N-((1s,3s)-3-((4-((3,4-dichloro-2-fluorophenyl)amino)-7-(oxetan-3-yloxy)quinazolin-6-yl)oxy)cyclobutyl)acrylamide] |
| ≤ 200 | ≤ 200 | ≤ 200 | ≤ 200 | ≤ 200 | ≤ 200 | C=CC(=O)N[C@H]1C[C@@H](Oc2cc3c(Nc4ccc(Cl)c(Cl)c4F)ncnc3cc2OCC)C1 [Compound 105, N-((1s,3s)-3-((4-((3,4-dichloro-2-fluorophenyl)amino)-7-ethoxyquinazolin-6-yl)oxy)cyclobutyl)acrylamide] |
| 200 to 1000 | ≤ 200 | ≤ 200 | ≤ 200 | ≤ 200 | ≤ 200 | C=CC(=O)N1CCC(Oc2cc3c(NCc4cccc(Cl)c4)ncnc3cc2OC)CC1 [Compound 106, 1-(4-((4-((3-chlorobenzyl)amino)-7-methoxyquinazolin-6-yl)oxy)piperidin-1-yl)prop-2-en-1-one] |
| 200 to 1000 | 200 to 1000 | 200 to 1000 | 200 to 1000 | > 1000 | ≤ 200 | C=CC(=O)N1CCC(Oc2cc3c(OCc4cccc(Cl)c4)ncnc3cc2OC)CC1 [Compound 107, 1-(4-((4-((3-chlorobenzyl)oxy)-7-methoxyquinazolin-6-yl)oxy)piperidin-1-yl)prop-2-en-1-one] |
| > 1000 | > 1000 | > 1000 | 200 to 1000 | > 1000 | ≤ 200 | C=CC(=O)N1CCC(Oc2cc3c(NCc4ccc(Cl)cc4)ncnc3cc2OC)CC1 [Compound 108, 1-(4-((4-((4-chlorobenzyl)amino)-7-methoxyquinazolin-6-yl)oxy)piperidin-1-yl)prop-2-en-1-one] |
| > 1000 | > 1000 | > 1000 | > 1000 | > 1000 | 200 to 1000 | C=CC(=O)N1CCC(Oc2cc3c(NCc4ccc(Cl)cc4Cl)ncnc3cc2OC)CC1 [Compound 109, 1-(4-((4-((2,4-dichlorobenzyl)amino)-7-methoxyquinazolin-6-yl)oxy)piperidin-1-yl)prop-2-en-1-one] |
| 200 to 1000 | 200 to 1000 | ≤ 200 | ≤ 200 | ≤ 200 | ≤ 200 | C=CC(=O)N1CCC(Oc2cc3c(NCc4ccccc4Cl)ncnc3cc2OC)CC1 [Compound 110, 1-(4-((4-((2-chlorobenzyl)amino)-7-methoxyquinazolin-6-yl)oxy)piperidin-1-yl)prop-2-en-1-one] |
| 200 to 1000 | 200 to 1000 | ≤ 200 | ≤ 200 | ≤ 200 | ≤ 200 | C=CC(=O)N1CCC(Oc2cc3c(NCc4cccc(F)c4)ncnc3cc2OC)CC1 [Compound 111, 1-(4-((4-((3-fluorobenzyl)amino)-7-methoxyquinazolin-6-yl)oxy)piperidin-1-yl)prop-2-en-1-one] |
| 200 to 1000 | > 1000 | 200 to 1000 | 200 to 1000 | ≤ 200 | ≤ 200 | C=CC(=O)N1CCC(Oc2cc3c(NCc4ccccc4F)ncnc3cc2OC)CC1 [Compound 112, 1-(4-((4-((2-fluorobenzyl)amino)-7-methoxyquinazolin-6-yl)oxy)piperidin-1-yl)prop-2-en-1-one] |
| > 1000 | > 1000 | 200 to 1000 | 200 to 1000 | ≤ 200 | ≤ 200 | C=CC(=O)N1CCC(Oc2cc3c(NCc4ccc(Cl)c(F)c4)ncnc3cc2OC)CC1 [Compound 113, 1-(4-((4-((4-chloro-3-fluorobenzyl)amino)-7-methoxyquinazolin-6-yl)oxy)piperidin-1-yl)prop-2-en-1-one] |
| ≤ 200 | 200 to 1000 | 200 to 1000 | 200 to 1000 | ≤ 200 | ≤ 200 | C=CC(=O)N1CCC(Oc2cc3c(NCc4ccc(F)c(Cl)c4)ncnc3cc2OC)CC1 [Compound 114, 1-(4-((4-((3-chloro-4-fluorobenzyl)amino)-7-methoxyquinazolin-6-yl)oxy)piperidin-1-yl)prop-2-en-1-one] |
| 200 to 1000 | > 1000 | > 1000 | > 1000 | ≤ 200 | ≤ 200 | C=CC(=O)N1CCC(Oc2cc3c(NCc4ccc(Cl)c(Cl)c4)ncnc3cc2OC)CC1 [Compound 115, 1-(4-((4-((3,4-dichlorobenzyl)amino)-7-methoxyquinazolin-6-yl)oxy)piperidin-1-yl)prop-2-en-1-one] |
| 200 to 1000 | 200 to 1000 | ≤ 200 | ≤ 200 | ≤ 200 | ≤ 200 | C=CC(=O)N1CCC(Oc2cc3c(NCc4cccc(Cl)c4F)ncnc3cc2OC)CC1 [Compound 116, 1-(4-((4-((3-chloro-2-fluorobenzyl)amino)-7-methoxyquinazolin-6-yl)oxy)piperidin-1-yl)prop-2-en-1-one] |
| 200 to 1000 | > 1000 | > 1000 | > 1000 | > 1000 | 200 to 1000 | C=CC(=O)N1CCC(Oc2cc3c(NCc4cc(Cl)cc(Cl)c4)ncnc3cc2OC)CC1 [Compound 117, 1-(4-((4-((3,5-dichlorobenzyl)amino)-7-methoxyquinazolin-6-yl)oxy)piperidin-1-yl)prop-2-en-1-one] |
| > 1000 | > 1000 | > 1000 | > 1000 | 200 to 1000 | ≤ 200 | C=CC(=O)N1CCC(Oc2cc3c(NCc4cc(Cl)ccc4F)ncnc3cc2OC)CC1 [Compound 118, 1-(4-((4-((5-chloro-2-fluorobenzyl)amino)-7-methoxyquinazolin-6-yl)oxy)piperidin-1-yl)prop-2-en-1-one] |
| > 1000 | > 1000 | > 1000 | > 1000 | > 1000 | ≤ 200 | C=CC(=O)N1CCC(Oc2cc3c(NCc4cc(Cl)ccc4Cl)ncnc3cc2OC)CC1 [Compound 119, 1-(4-((4-((2,5-dichlorobenzyl)amino)-7-methoxyquinazolin-6-yl)oxy)piperidin-1-yl)prop-2-en-1-one] |
| 200 to 1000 | ≤ 200 | ≤ 200 | ≤ 200 | 200 to 1000 | ≤ 200 | C=CC(=O)N1CCC(Oc2cc3c(NCc4cccc(Br)c4)ncnc3cc2OC)CC1 [Compound 120, 1-(4-((4-((3-bromobenzyl)amino)-7-methoxyquinazolin-6-yl)oxy)piperidin-1-yl)prop-2-en-1-one] |
| 200 to 1000 | 200 to 1000 | 200 to 1000 | 200 to 1000 | 200 to 1000 | ≤ 200 | C=CC(=O)N1CCC(Oc2cc3c(NCc4cccc(C)c4)ncnc3cc2OC)CC1 [Compound 121, 1-(4-((7-methoxy-4-((3-methylbenzyl)amino)quinazolin-6-yl)oxy)piperidin-1-yl)prop-2-en-1-one] |
| 200 to 1000 | 200 to 1000 | 200 to 1000 | 200 to 1000 | > 1000 | ≤ 200 | C=CC(=O)N1CCC(Oc2cc3c(NCc4cc(F)cc(Cl)c4)ncnc3cc2OC)CC1 [Compound 122, 1-(4-((4-((3-chloro-5-fluorobenzyl)amino)-7-methoxyquinazolin-6-yl)oxy)piperidin-1-yl)prop-2-en-1-one] |
| 200 to 1000 | 200 to 1000 | ≤ 200 | ≤ 200 | 200 to 1000 | ≤ 200 | C=CC(=O)N1CCC(Oc2cc3c(NCc4ccccc4)ncnc3cc2OC)CC1 [Compound 123, 1-(4-((4-(benzylamino)-7-methoxyquinazolin-6-yl)oxy)piperidin-1-yl)prop-2-en-1-one] |
| > 1000 | > 1000 | > 1000 | > 1000 | > 1000 | ≤ 200 | C=CC(=O)N1CCC(Oc2cc3c(NCc4cccc(C#N)c4)ncnc3cc2OC)CC1 [Compound 124, 3-(((6-((1-acryloylpiperidin-4-yl)oxy)-7-methoxyquinazolin-4-yl)amino)methyl)benzonitrile] |

Reference: US20250243171A1, “QUINAZOLINE COMPOUNDS FOR TREATMENT OF DISEASE” (Arthrosi Therapeutics, Inc., priority 2021, published 2025)
